According to publication PMC11082216, “A genetically encoded biosensor to monitor dynamic changes of c-di-GMP with high temporal resolution” (Nature Communications, 2024):
pKd: −log10 of the molar value.

Key:
PdeA [1] = biological target: T1, PdeA (Caulobacter vibrioides, UniProt A0A0H3CDG5); experiment: activation of purified PdeA phosphodiesterase, c-di-GMP turnover read with cdGreen2, GTP dose-response; format: biochemical
T1 sequence (A0A0H3CDG5 1-555): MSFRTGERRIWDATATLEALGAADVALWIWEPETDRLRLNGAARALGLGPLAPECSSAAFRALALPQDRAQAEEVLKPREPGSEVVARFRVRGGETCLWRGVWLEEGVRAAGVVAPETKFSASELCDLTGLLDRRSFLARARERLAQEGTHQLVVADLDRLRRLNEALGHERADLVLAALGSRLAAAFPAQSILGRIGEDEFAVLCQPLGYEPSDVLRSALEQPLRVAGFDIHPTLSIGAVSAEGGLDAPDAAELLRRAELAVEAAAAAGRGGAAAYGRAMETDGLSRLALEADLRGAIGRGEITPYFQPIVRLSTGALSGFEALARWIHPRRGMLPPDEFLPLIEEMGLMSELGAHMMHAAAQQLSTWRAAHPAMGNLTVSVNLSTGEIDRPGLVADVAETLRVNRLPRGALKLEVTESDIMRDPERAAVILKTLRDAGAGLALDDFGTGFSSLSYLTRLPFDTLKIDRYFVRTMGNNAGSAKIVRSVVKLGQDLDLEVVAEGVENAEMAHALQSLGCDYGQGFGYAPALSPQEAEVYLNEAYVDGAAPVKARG

PdeA [2] = biological target: T1, PdeA; experiment: purified phosphodiesterase turnover of c-di-GMP read with cdGreen2; format: biochemical

pKd (PdeA [1]) | SMILES | purified phosphodiesterase turnover of c-di-GMP read with cdGreen2 (PdeA [2])
~5.47 | Nc1nc2c(ncn2[C@@H]2O[C@H](COP(=O)(O)OP(=O)(O)OP(=O)(O)O)[C@@H](O)[C@H]2O)c(=O)[nH]1 [GTP] | –
– | Nc1nc2c(ncn2[C@@H]2O[C@@H]3COP(=O)(O)O[C@H]4[C@@H](O)[C@H](n5cnc6c(=O)[nH]c(N)nc65)O[C@@H]4COP(=O)(O)O[C@H]3[C@H]2O)c(=O)[nH]1 [c-di-GMP] | purified cdGreen2 also accurately monitored the breakdown of c-di-GMP by all PDEs tested
